The NIST ThermoML archive (doi:10.1016/j.tca.2006.06.022)
± gives the expanded uncertainty stated by the source.

How the values were obtained:
[1] = DTA
[2] = Molar enthalpy of transition or fusion; conditions: DSC

Triple point temperature ([1]; Crystal 1) [K] | Triple point temperature ([1]; Crystal 2) [K] | Triple point temperature ([1]; Crystal 3) [K] | Molar enthalpy of transition or fusion ([2]; Crystal 1) [kcal/mol] | Molar enthalpy of transition or fusion ([2]; Crystal 2) [kcal/mol] | Molar enthalpy of transition or fusion ([2]; Crystal 3) [kcal/mol] | Triple point temperature ([1]; Crystal 4) [K] | Molar enthalpy of transition or fusion ([2]; Crystal 4) [kcal/mol] | Structure (SMILES)
357.3 ± 0.1 | 348.6 ± 0.1 | 344.6 ± 0.1 | 39.7 ± 0.813 | 2.02 ± 0.0574 | 0.504 ± 0.0287 |  |  | CCCCCCCCCCCCCCCCCCCCCCCCCCCCCCCCCCCCCCCCCC [dotetracontane]
349.2 ± 0.1 | 347.1 ± 0.1 | 346.8 ± 0.1 | 24.5 ± 0.502 | 6.82 ± 0.153 | 3.59 ± 0.0884 | 343.6 ± 0.1 | 0.112 ± 0.0208 | CCCCCCCCCCCCCCCCCCCCCCCCCCCCCCCCCCCC [hexatriacontane]
354.6 ± 0.1 | 347.7 ± 0.1 | 345 ± 0.1 | 34.4 ± 0.717 | 2.05 ± 0.0574 | 0.601 ± 0.0311 |  |  | CCCCCCCCCCCCCCCCCCCCCCCCCCCCCCCCCCCCCCCC [tetracontane]
346.1 ± 0.1 | 343.5 ± 0.1 | 342.8 ± 0.1 | 22.9 ± 0.478 | 11.2 ± 0.239 | 0.0968 ± 0.0203 |  |  | CCCCCCCCCCCCCCCCCCCCCCCCCCCCCCCCCC [tetratriacontane]
